According to publication PMC11547576, “Identification of a New Promising BAG3 Modulator Featuring the Imidazopyridine Scaffold” (Molecules, 2024):

Columns and labels:
BAG3-BD = target: T1, BAG3-BD (Homo sapiens, UniProt O95817); assay: SPR assay on BAG domain of BAG3 (BAG3-BD); format: binding; conditions: Biacore T200, 0 to 100 µM, 25 °C, 1:1 interaction model, read-out: BAG DOMAIN KD (µM) ± SD
T1 construct: the BAG3 domain (BAG3-BD) was procured from ARETA International S.r.l; purchased ARETA International S.r.l; (Gerenzano, Italy)
T1 sequence (O95817 421-498 limits assumed): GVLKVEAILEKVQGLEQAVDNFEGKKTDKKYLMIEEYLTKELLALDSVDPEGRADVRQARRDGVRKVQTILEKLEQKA
Experimental: In this study, we employed SPR experiments to evaluate the interactions between synthesized compounds (1–14) and both the full-length BAG3 protein and its BAG domain. Only the compounds that successfully bound to the full-length BAG3 protein were tested for their interaction with the BAG domain. Protein immobilization was achieved using the amide coupling method, and the compounds were tested at ten different concentrations, ranging from 0 to 100 µM. A known binder of BAG3-BD, LK4 ((Z)-ethyl 2-(5-(3,4-dihydroxybenzylidene)-2,4-dioxothiazolidin-3yl)acetate), was used as a positive control. […] Compound 14 also bound the target but with slightly higher KD values, still within the micromolar range. The three identified compounds were further investigated to understand whether this binding induced an effect on BAG3 protein functions. The KD values reported in Table 1 for the known inhibitor LK4 differ from those in previous studies due to the use of a newer-generation instrument for the SPR experiments. The earlier experiments utilized the Biacore 3000, whereas the current study employed the Biacore T200. While ligand binding was confirmed in both sets of experiments, the slightly different KD values are attributed to the enhanced sensitivity of the Biacore T200.
Recombinant human BAG3 protein (Bcl2-associated athanogene 3) was sourced from Novus Biologicals (Littleton, CO, USA), while the BAG3 domain (BAG3-BD) was procured from ARETA International S.r.l. (Gerenzano, Italy). We utilized (Z)-ethyl 2-(5-(3,4-dihydroxybenzylidene)-2,4-dioxothiazolidin-3-yl)acetate (LK4), a known BAG3 inhibitor previously identified by our group. Surface Plasmon Resonance (SPR) spectroscopy was employed to assess the affinity of synthesized molecules for BAG3 and BAG-BD using a Biacore T200 optical biosensor equipped with CM5 sensor chips (Cytiva, Marlborough, MA, USA). BAG3 and BAG-BD were immobilized on the CM5 sensor chip using standard amine-coupling protocols. BAG3 protein (0.067 μg/μL in 10 mM CH3COONa, pH 4.5) was immobilized at a flow rate of 10 μL/min, resulting in a density of 14 kRU. The BAG3 domain (0.38 μg/μL in 10 mM CH3COONa, pH 4.5) was immobilized under similar conditions, achieving a density of 4 kRU. […]
Compounds 1–14 and LK4 were dissolved to 10 mM in 100% DMSO and then diluted 1:20 (v/v) in PBS-P buffer (0.2 M phosphate buffer, 27 mM KCl, 1.37 M NaCl, 0.5% surfactant P20) to achieve a final DMSO concentration of 5.0%. […] Changes in mass, reflected as resonance units (RU), were recorded to determine binding responses. KD values were calculated using Biaevaluation software 3.2 by globally fitting the double-referenced association and dissociation data to a 1:1 interaction model. […]

caspase 3 = assay: Western blot of caspase 3 expression and cleavage; format: cell-based, human; conditions: HeLa cells, 72 h, 50, 30 and 20 µM
Experimental: Furthermore, we investigated the expressions of caspases, key mediators of programmed cell death, in HeLa cells treated with compound 10 at the same concentrations used in the previous assays. […] To further confirm the pro-apoptotic mechanism induced by compound 10, Western blotting was performed to measure the expression and cleavage of caspase 3 [38, 39].
The HeLa cell line was seeded in 60 mm culture dishes (20 × 104) and treated with compound 10 (50, 30, 20 μM) for 72 h. After treatments, the cells were washed twice, detached with a scraper, and centrifuged for 10 min (400× g, 4 °C) to remove debris. Total proteins were extracted by lysis buffer (20 mM Tris-HCl pH 7.5, 150 mM NaCl, 1 mM Na2EDTA, 1 mM EGTA, 2% NP-40, 1% sodium deoxycholate, 1× protease, and phosphatase inhibitor cocktail) for 30 min. […] Protein concentration was determined by the Bradford assay using bovine serum albumin as standard. […]
After washes in PBS/Tween-20 0.1% the appropriate anti-rabbit or anti-mouse (1:5000, Pierce, Thermo Fisher Scientific) peroxidase-linked secondary antibody was added for 1 h at room temperature. Antigen–antibody complexes were detected through enhanced chemiluminescence using LAS 4000 (GE Healthcare, Chicago, IL, USA) and a densitometry analysis of the autoradiographs was performed by using the ImageJ program, version 1.47 [38, 39]. […]

Compound: CC(C)Nc1c(-c2ccccc2Br)nc2ccc(Cl)cn12 [Compound 10, 2-(2-bromophenyl)-6-chloro-N-isopropylimidazo[1,2-a]pyridin-3-amine]
- Kd (BAG3-BD): 15.7 ± 1.44 µM
- expression of procaspase 3 (caspase 3): increased expression of procaspase 3
- levels of cleaved caspase 3 (caspase 3): elevated levels of cleaved caspase 3 in a dose-dependent manner
